Legend:
[1] = tested on: Pseudomonas aeruginosa, JCM 5961; assay: growth curve of Pseudomonas by optical density measuring method, liquid culture (½ TS medium); type: cell-based
Experimental: 100 mg of a sucrose monolaurate (Ryoto Sugar Ester L1695 produced by Mitsubishi-Kagaku Foods Corporation) was dissolved in 1 liter of a sterilized deionized water, the resultant solution was heated to 50° C., 50 mg of monolaurin (Taiyo Kagaku Co., Ltd.) was added thereinto followed by stirring, the dissolution thereof was then confirmed, and the resultant solution was subsequently cooled down to a room temperature. Added into the solution was 50 mg of an ε-polylysine product (50% dextrin powder produced by Chisso Corporation; containing 50% of ε-polylysine bromate and 50% of dextrin), followed by dissolution thereof, to obtain an antimicrobial aqueous solution. This antimicrobial aqueous solution contained 25 μg/ml of the ε-polylysine, 50 μg/ml of the monolaurin, and 100 μg/ml of the sucrose monolaurate. Here, used as the monolaurin was that recrystallized by means of hexane, because a monolaurin of high purity was required. […]

[2] = tested on: Pseudomonas; assay: successive 2-fold dilution in test tubes, visual observation of growth of bacteria; type: cell-based; design: key to growth of bacteria, Dilution rate 0 / growth of bacteria, Dilution rate ×2 / growth of bacteria, Dilution rate ×4: visually observing a growth of bacteria, and the observation result is shown by marks of + and −; visually observing a growth of bacteria, and the observation result is shown by marks of + and −
Experimental: Further, successive 2-fold dilutions […] media of ½ concentration; 5 ml of the applicable diluted solution at each fold was separately poured into dual test tubes, for preparation; while simultaneously preparing diluted solutions of ε-polylysine only in test tubes as a comparative test, in the same manner as the above; and one droplet of an inoculum of Pseudomonas was inoculated into each diluted solution, followed by shaking and culturing at 37° C. for 18 hours. Judgment of each activity was conducted by visually observing a growth of bacteria, and the observation result is shown by marks of + and −.

[3] = tested on: bacteria and fungi; assay: growth of bacteria and fungi with diluted ε-polylysine by itself; type: cell-based; settings: ε-polylysine by itself diluted down to about 6.25 μg/ml
[4] = acute toxicity; cited from earlier work
[5] = 37° C. for 18 hours, start: ε-polylysine only 50 μg/ml, or ε-polylysine 8 μg/ml (fix) + diglycerol monolaurate 50 μg/ml

Substance: ε-polylysine
- growth of bacteria (growth curve, FIG. 2) ([1]; 10 μg/ml of each component named in the sample code, compared with control without additive): growth of bacteria to the similar level as a control
- lapse of time after which growth of bacteria set in (growth curve, FIG. 1) ([1]; sample codes give μg/ml (M monolaurin, PL ε-polylysine, S sucrose monolaurate)): 12 h
- growth of bacteria, Dilution rate 0 [2, 5]: −
- growth of bacteria, Dilution rate ×2 [2, 5]: −
- growth of bacteria, Dilution rate ×4 [2, 5]: −
- dilutions in which growth of bacteria was found ([2]; ε-polylysine only, start 50 μg/ml, successive 2-fold dilution): ≥ 8 fold
- effect on growth of bacteria and fungi [3]: promote growth of bacteria and fungi
- LD50 [4]: > 10000 mg/kg
